System: C. elegans N2 Bristol strain
Experiment: C. elegans fecundity assay
Format: in vivo, Caenorhabditis elegans
Settings: estimated concentration threshold, refined threshold-exposure stage; 6–7 days

Structure (SMILES): Cn1c(C(=O)NCCCc2c[nH]c(N)n2)cc(Br)c1Br [DHS, dihydrosventrin]
- ECT (C. elegans): 470 to 490 µM

Source: publication PMC3434693 (Drug and chemical toxicology, 2012)
